# According to patent publication US11103605B2, “PET-imaging immunomodulators” (BRISTOL-MYERS SQUIBB COMPANY, priority 2016, dated 2021):
# How the values were obtained:
# endogenous PD-L1 = assay: PET imaging in non-human primate, baseline and blocking study; settings: for % Change of tracer SUV, baseline vs blocked: 2 mg/kg PD-L1 binding macrocyclic peptide
# Procedure: Cynomolgus male monkeys with a previously installed vascular access port (VAP) were anesthetized with 0.02 mg/kg atropine, 5 mg/kg Telazol and 0.01 mg/kg buprenorphine I.M. (all drawn into a single syringe). An i.v. catheter is then placed in the cephalic vessel for fluid administration during the imaging procedure to maintain hydration. Animals were intubated with an endotracheal tube—usually 3.0 mm and transferred to the imaging bed of a microPET® F220TM PET instrument (Siemens Preclinical Solutions, Knoxville, Tenn.). Anesthesia was maintained with isoflurane and oxygen and I.V. fluids (LRS) were administered at a rate of 6 ml/kg/hr during the imaging procedure. As the axial field of view of the microPET® F220™ instrument is only 7.6 cm, images over 5 distinct bed positions were acquired to create a composite image of the animals from just above the heart through approximately the pelvis.
# For each field of view, a 10 minute transmission image was first acquired using a ^57Co point source for the purpose of attenuation correction of the final PET images. Once transmission images were acquired for all bed positions, approximately 1.7 mCi (approximately 0.12 μg/kg) of the [^18F]labelled macrocyclic PD-L1 peptide radiotracer was administered via the installed VAP. 5 minute duration emission scans were then sequentially acquired for each bed position, beginning at position 1 centered approximately at the heart and moving toward the pelvis of the animal. Once images were acquired at each position (1 through 5), the imaging bed was moved back to bed position 1 and the process was repeated. Using this procedure, a total of 5 distinct images were acquired for each bed position over the duration of the imaging study.
# Individual images were reconstructed using a filtered back projection (FBP) algorithm with attenuation correction using the collected transmission images and corrected for radioisotope decay. Final composite images were then produced by aligning images from all 5 bed positions obtained from a single pass (i.e. a single composite image was produced from each set of sequential images from bed positions 1 through 5) covering the duration of the imaging study. […] To determine the nature of the specific binding in the cynomolgus monkey spleen a blocking study was conducted in the following manner.
# The cynomolgus monkey (4.4 kg, male) received a single IV injection of [^18F]labelled macrocyclic PD-L1 peptide radiotracer (˜1.7 mCi, mass: 0.21 μg/kg) at baseline. On the following day (post-dose), the same NHP received a single SC dose of 2 mg/kg anti-PD-L1 binding macrocyclic peptide at 2 hours before radiotracer injection (˜1.7 mCi, mass: 0.12 μg/kg).
# PD-L1 = target: T1, PD-L1 (Homo sapiens, UniProt Q9NZQ7); assay: In vitro autoradiography on human lung tumor and xenograft tissue sections; format: binding; settings: 0.25 nM radiotracer, unlabelled peptide 0.1 nM, 1 nM, 10 nM
# T1 construct: Human lung tumor tissues were embedded in OCT and chilled in 2-methylbutane; from tissue; host or cells: human non-small cell lung cancer biopsy sections; L2987 (hPD-L1+) and HT-29 (hPD-L1-) human xenograft sections grown in mice
# T1 sequence (Q9NZQ7 19-290): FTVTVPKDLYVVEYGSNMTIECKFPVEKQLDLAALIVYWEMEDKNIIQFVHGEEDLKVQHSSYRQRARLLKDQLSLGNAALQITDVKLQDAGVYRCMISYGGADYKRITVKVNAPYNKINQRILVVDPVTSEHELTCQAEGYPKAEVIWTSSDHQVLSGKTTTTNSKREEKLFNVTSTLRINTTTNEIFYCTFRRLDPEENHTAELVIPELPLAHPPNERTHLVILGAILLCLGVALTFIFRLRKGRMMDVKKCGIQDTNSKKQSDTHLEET
# Procedure: Human lung tumor tissues were embedded in OCT and chilled in 2-methylbutane for 2-5 minutes until frozen. Samples were stored in −80° C. degree freezer until use. Human xenograft tissues were also included in the assay. […] Once resulting xenograft tumors reached appropriate size (approx. 200-300 mm^3), mice were anesthetized with 2% isoflurane and sacrificed via cervical dislocation. Fresh tumor tissues were excised, immersed into OCT and chilled in 2-methylbutane for 2-5 minutes until frozen. The tissues were then wrapped in foil/ZIPLOC® bag and stored at −80° C. until use. For all tissues (human lung tumor and xenografts) sections of 5 μm thickness (collected as 2 sections/slide) were cut using a cryostat, thaw-mounted on glass microscope slides, and allowed to air dry for approximately 30 minutes. Blocking studies with cold (unlabelled) peptide at 0.1 nM, 1 nM, and 10 nM respectively. The individual slides, 1 slide per concentration, were transferred to glass slide incubation chambers for incubation. […] Autoradiography signals from tissue-associated radioactivity were quantified from these ROIs. The apparent displacement of the [^18F]labelled macrocyclic PD-L1 peptide radiotracer when compared to the total binding sections was determined for 3 different concentrations (0.1 nM, 1 nM, and 10 nM) of unlabeled peptide in both human lung tumor sections as well as human xenograft sections. […]
compound,measurement,setting,value
CCCC[C@H]1C(=O)N(C)[C@@H](CCCC)C(=O)N[C@@H](CC(C)C)C(=O)N[C@H](C(=O)NCC(=O)N[C@@H](Cc2cn(CCOCCOCCOCCOc3cccnc3[18F])nn2)C(=O)O)CSCC(=O)N[C@@H](Cc2ccc(O)cc2)C(=O)N(C)[C@@H](C)C(=O)N[C@@H](CC(N)=O)C(=O)N2CCC[C@H]2C(=O)N[C@@H](CN)C(=O)N[C@@H](CC(C)C)C(=O)N2C[C@H](O)C[C@H]2C(=O)N[C@@H](Cc2c[nH]c3ccccc23)C(=O)N[C@@H](CCN)C(=O)N[C@@H](Cc2cn(CC(=O)O)c3ccccc23)C(=O)N1C [[^18F]labelled macrocyclic PD-L1 peptide],tracer uptake blocked in the spleen,endogenous PD-L1; 2 mg/kg of a specific PD-L1 binding macrocyclic peptide,93%
same,"% Change of tracer SUV, baseline vs blocked",endogenous PD-L1; Duodenum,−0.9%
same,"% Change of tracer SUV, baseline vs blocked",endogenous PD-L1; Gallbladder,−59.4%
same,"% Change of tracer SUV, baseline vs blocked",endogenous PD-L1; Kidney Cortex,28.8%
same,"% Change of tracer SUV, baseline vs blocked",endogenous PD-L1; Kidney Pelvis,171.7%
same,"% Change of tracer SUV, baseline vs blocked",endogenous PD-L1; Liver,−65.5%
same,"% Change of tracer SUV, baseline vs blocked",endogenous PD-L1; Lung,−57.3%
same,"% Change of tracer SUV, baseline vs blocked",endogenous PD-L1; Muscle,−34.7%
same,notable radiotracer accumulation (organs),endogenous PD-L1; PET images,"kidneys, spleen, and bladder"
same,"% Change of tracer SUV, baseline vs blocked",endogenous PD-L1; Spleen,−92.8%
same,"% Change of tracer SUV, baseline vs blocked",endogenous PD-L1; Thymus,−53.3%
same,background accumulation of radiotracer in background tissues such as muscle,endogenous PD-L1; visual inspection of PET images,very low
same,displacement of radiotracer by unlabelled peptide,PD-L1,dose dependent displacement
